Experimental data: patent publication US6419941B1, “Polyol ester insecticides and method of synthesis” (AVA Chemical Ventures L.L.C., priority 2000, dated 2002)
“Also recorded” adds a separate entry of the source.

Key:
Type in all cases: in vivo
[1] = system: tobacco aphid; assay: effectiveness against tobacco aphid; details: comparison in words, FIG. 9-11
Procedure: (§1) The chain lengths were systematically varied to determine if the chain length was critical as to the effectiveness as insecticides. The compounds were tested against pear psylla, tobacco hornworms, tobacco aphids and two-spotted spider mites.

[2] = system: two-spotted spider mite; assay: effectiveness against two-spotted spider mite; details: comparison in words, FIG. 12
Procedure: as §1

[3] = insecticidal activity, insect not specified; details: general statement, insect not named
[4] = system: pear psylla; assay: kill of pear psylla by polyol esters; details: comparison in words, FIG. 1, 6, 7
Procedure: as §1

| Substance | effectiveness against tobacco aphid [1] | effectiveness against two-spotted spider mite [2] | effectiveness as insecticide / insecticidal activity [3] | effectiveness (kill data) on pear psylla [4] | effectiveness (kill data) on pear psylla ([4]; listed as C10 acid ester) |
| --- | --- | --- | --- | --- | --- |
| D-Glucitol, decanoate [sorbitol decanoate] | more effective than xylitol laurate; also recorded: better than a commercially available insecticidal soap product | marginally more effective than the others | – | – | – |
| D-Glucitol, octanoate [sorbitol octanoate] | more effective than sorbitol decanoate | – | more effective as insecticides | the most effective | – |
| Xylitol decanoate | – | – | the most effective for xylitol | most effective | the most effective |
| Xylitol dodecanoate [xylitol laurate] | more effective than xylitol decanoate; also recorded: better than a commercially available insecticidal soap product | – | – | – | – |
| sucrose octanoate | – | – | the monoesters were more effective as insecticides than the diesters and triesters | monoesters that are more effective as insecticides than the diesters and triesters | – |
| sucrose stearate [commercial sucrose stearate product] | – | – | does not have insecticidal activity | – | – |
